Structures can show the parent of a compound that is named as a salt.
Compound	melting point [°C]
Cl.Cn1c(=O)c2cc(OCCN3CCOCC3)ccc2n2nc(-c3ccnc(C(F)(F)F)c3)cc12	> 250
CN1CCN(c2ccc3c(=O)n(C)c4cc(-c5ccnc(C(F)(F)F)c5)nn4c3c2)CC1.Cl	> 250
Cl.Cn1c(=O)c2ccc(N3CCNCC3)cc2n2nc(-c3ccnc(C(F)(F)F)c3)cc12	> 250
Cl.Cn1c(=O)c2ccccc2n2nc(-c3ccnc(C4CCCC4)c3)cc12	> 250
Cl.Cn1c(=O)c2ccccc2n2nc(-c3ccnc(C4CCCCC4)c3)cc12	> 250
COc1ccc2c(c1)c(=O)n(C)c1cc(-c3ccnc(C4CC4)c3)nn21 (as salt: HCl) [Example 100, 2-(2-Cyclopropyl-pyridin-4-yl)-7-methoxy-4-methyl-4H-pyrazolo[1,5-a]quinazolin-5-one]	230 to 240
Cn1c(=O)c2ccccc2n2nc(-c3ccncc3)cc12 (as salt: HCl) [Example 104, 4-Methyl-2-pyridin-4-yl-4H-pyrazolo[1,5-a]quinazolin-5-one]	> 250
Cc1cc(-c2cc3n(C)c(=O)c4ccccc4n3n2)cc(C2CC2)n1 (as salt: HCl) [Example 106, 2-(2-Cyclopropyl-6-methyl-pyridin-4-yl)-4-methyl-4H-pyrazolo[1,5-a]quinazolin-5-one]	> 250
Cn1c(=O)c2ccccc2n2nc(-c3ccnc(OC4COC4)c3)cc12 [Example 18, 4-Methyl-2-[2-(oxetan-3-yloxy)-pyridin-4-yl]-4H-pyrazolo[1,5-a]quinazolin-5-one]	219 to 223
COCCOc1cc(-c2cc3n(C)c(=O)c4ccccc4n3n2)ccn1 [Example 20, 2-[2-(2-Methoxy-ethoxy)-pyridin-4-yl]-4-methyl-4H-pyrazolo[1,5-a]quinazolin-5-one]	169 to 173
O=c1c2ccccc2n2nc(-c3ccnc(C(F)(F)F)c3)cc2n1CC(F)F [Example 29, 4-(2,2-Difluoro-ethyl)-2-(2-trifluoromethyl-pyridin-4-yl)-4H-pyrazolo[1,5-a]quinazolin-5-one]	223 to 230
COCCn1c(=O)c2ccccc2n2nc(-c3ccnc(C(F)(F)F)c3)cc12 [Example 30, 4-(2-Methoxy-ethyl)-2-(2-trifluoromethyl-pyridin-4-yl)-4H-pyrazolo[1,5-a]quinazolin-5-one]	165 to 174
Cn1c(=O)c2cc(C(F)(F)F)ccc2n2nc(-c3ccnc(C(F)(F)F)c3)cc12 [Example 37]	205 to 210
CC(=O)Nc1ccc2c(c1)c(=O)n(C)c1cc(-c3ccnc(C(F)(F)F)c3)nn21 [Example 42, N-[4-Methyl-5-oxo-2-(2-trifluoromethyl-pyridin-4-yl)-4,5-dihydro-pyrazolo[1,5-a]quinazolin-7-yl]-acetamide]	> 250
Cn1c(=O)c2cc(N)ccc2n2nc(-c3ccnc(C(F)(F)F)c3)cc12 [Example 43, 7-Amino-4-methyl-2-(2-trifluoromethyl-pyridin-4-yl)-4H-pyrazolo[1,5-a]quinazolin-5-one]	245 to 250
Cn1c(=O)c2cc(NC3CCC3)ccc2n2nc(-c3ccnc(C(F)(F)F)c3)cc12 [Example 46, 7-Cyclobutylamino-4-methyl-2-(2-trifluoromethyl-pyridin-4-yl)-4H-pyrazolo[1,5-a]quinazolin-5-one]	220 to 225
Cn1c(=O)c2cc(N3CCOCC3)ccc2n2nc(-c3ccnc(C(F)(F)F)c3)cc12 [Example 47, 4-Methyl-7-morpholin-4-yl-2-(2-trifluoromethyl-pyridin-4-yl)-4H-pyrazolo[1,5-a]quinazolin-5-one]	149 to 163
COCCOc1ccc2c(c1)c(=O)n(C)c1cc(-c3ccnc(C(F)(F)F)c3)nn21 [Example 50, 7-(2-Methoxy-ethoxy)-4-methyl-2-(2-trifluoromethyl-pyridin-4-yl)-4H-pyrazolo[1,5-a]quinazolin-5-one]	182 to 189
Cn1c(=O)c2cc(OC(F)(F)F)ccc2n2nc(-c3ccnc(C(F)(F)F)c3)cc12 [Example 52, 4-Methyl-7-trifluoromethoxy-2-(2-trifluoromethyl-pyridin-4-yl)-4H-pyrazolo[1,5-a]quinazolin-5-one]	240 to 245
Cn1c(=O)c2cc(S(C)(=O)=O)ccc2n2nc(-c3ccnc(C(F)(F)F)c3)cc12 [Example 53, 7-Methanesulfonyl-4-methyl-2-(2-trifluoromethyl-pyridin-4-yl)-4H-pyrazolo[1,5-a]quinazolin-5-one]	> 250

Compound	melting point [°C]
COc1ccc2c(=O)n(C)c3cc(-c4ccnc(C(F)(F)F)c4)nn3c2c1 [Example 54, 8-Methoxy-4-methyl-2-(2-trifluoromethyl-pyridin-4-yl)-4H-pyrazolo[1,5-a]quinazolin-5-one]	> 250
Cn1c(=O)c2ccc(N3CCOCC3)cc2n2nc(-c3ccnc(C(F)(F)F)c3)cc12 [Example 59, 4-Methyl-8-morpholin-4-yl-2-(2-trifluoromethyl-pyridin-4-yl)-4H-pyrazolo[1,5-a]quinazolin-5-one]	> 250
Cn1c(=O)c2ccc(N3CCCC3)cc2n2nc(-c3ccnc(C(F)(F)F)c3)cc12 [Example 60, 4-Methyl-8-pyrrolidin-1-yl-2-(2-trifluoromethyl-pyridin-4-yl)-4H-pyrazolo[1,5-a]quinazolin-5-one]	> 250
COC1CCN(c2ccc3c(=O)n(C)c4cc(-c5ccnc(C(F)(F)F)c5)nn4c3c2)CC1 [Example 62, 8-(4-Methoxy-piperidin-1-yl)-4-methyl-2-(2-trifluoromethyl-pyridin-4-yl)-4H-pyrazolo[1,5-a]quinazolin-5-one]	> 250
Cn1c(=O)c2ccc(N3CCC(CO)CC3)cc2n2nc(-c3ccnc(C(F)(F)F)c3)cc12 [Example 67, 8-(4-Hydroxymethyl-piperidin-1-yl)-4-methyl-2-(2-trifluoromethyl-pyridin-4-yl)-4H-pyrazolo[1,5-a]quinazoin-5-one]	205 to 210
Cn1c(=O)c2ccc(N3CC(CO)C3)cc2n2nc(-c3ccnc(C(F)(F)F)c3)cc12 [Example 69, 8-(3-Hydroxymethyl-azetidin-1-yl)-4-methyl-2-(2-trifluoromethyl-pyridin-4-yl)-4H-pyrazolo[1,5-a]quinazolin-5-one]	> 250
Cn1c(=O)c2ccc(N3CCC(C)(O)CC3)cc2n2nc(-c3ccnc(C(F)(F)F)c3)cc12 [Example 71, 8-(4-Hydroxy-4-methyl-piperidin-1-yl)-4-methyl-2-(2-trifluoromethyl-pyridin-4-yl)-4H-pyrazolo[1,5-a]quinazolin-5-one]	> 250
Cc1ccc2c(=O)n(C)c3cc(-c4ccnc(C(F)(F)F)c4)nn3c2c1 [Example 72, 4,8-Dimethyl-2-(2-trifluoromethyl-pyridin-4-yl)-4H-pyrazolo[1,5-a]quinazolin-5-one]	> 250
Cn1c(=O)c2ccc(C3CC3)cc2n2nc(-c3ccnc(C(F)(F)F)c3)cc12 [Example 73, 8-Cyclopropyl-4-methyl-2-(2-trifluoromethyl-pyridin-4-yl)-4H-pyrazolo[1,5-a]quinazolin-5-one]	> 250
Cn1c(=O)c2ccc(C3CCCC3)cc2n2nc(-c3ccnc(C(F)(F)F)c3)cc12 [Example 74, 8-Cyclopentyl-4-methyl-2-(2-trifluoromethyl-pyridin-4-yl)-4H-pyrazolo[1,5-a]quinazolin-5-one]	246 to 250
Cn1c(=O)c2ccc(C#N)cc2n2nc(-c3ccnc(C(F)(F)F)c3)cc12 [Example 75, 4-Methyl-5-oxo-2-(2-trifluoromethyl-pyridin-4-yl)-4,5-dihydro-pyrazolo[1,5-a]quinazoline-8-carbonitrile]	> 250
Cn1c(=O)c2ccc(C(=O)O)cc2n2nc(-c3ccnc(C(F)(F)F)c3)cc12 [Example 76, 4-Methyl-5-oxo-2-(2-trifluoromethyl-pyridin-4-yl)-4,5-dihydro-pyrazolo[1,5-a]quinazoline-8-carboxylic Acid]	> 250
Cn1c(=O)c2ccc(OCCO)cc2n2nc(-c3ccnc(C(F)(F)F)c3)cc12 [Example 83, 8-(2-Hydroxy-ethoxy)-4-methyl-2-(2-trifluoromethyl-pyridin-4-yl)-4H-pyrazolo[1,5-a]quinazolin-5-one]	128 to 134
COc1cccc2c(=O)n(C)c3cc(-c4ccnc(C(F)(F)F)c4)nn3c12 [Example 86, 9-Methoxy-4-methyl-2-(2-trifluoromethyl-pyridin-4-yl)-4H-pyrazolo[1,5-a]quinazolin-5-one]	> 250
COc1ccc2c(c1)c(=O)n(C)c1cc(-c3ccnc(F)c3)nn21 [Example 101, 2-(2-Fluoro-pyridin-4-yl)-7-methoxy-4-methyl-4H-pyrazolo[1,5-a]quinazolin-5-one]	235 to 245
Cn1cc(-c2cc3n(C)c(=O)c4ccccc4n3n2)cn1 [Example 103, 4-Methyl-2-(1-methyl-1H-pyrazol-4-yl)-4H-pyrazolo[1,5-a]quinazolin-5-one]	195 to 199
Cn1c(=O)c2ccccc2n2nc(-c3ccncc3F)cc12 [Example 107, 2-(3-Fluoro-pyridin-4-yl)-4-methyl-4H-pyrazolo[1,5-a]quinazolin-5-one]	244 to 247
Cc1cnccc1-c1cc2n(C)c(=O)c3ccccc3n2n1 [Example 109, 4-Methyl-2-(3-methyl-pyridin-4-yl)-4H-pyrazolo[1,5-a]quinazolin-5-one]	145 to 150
Cn1c(=O)c2ccc(OCCCO)cc2n2nc(-c3ccnc(C(F)(F)F)c3)cc12 [Example 111, 8-(3-Hydroxy-propoxy)-4-methyl-2-(2-trifluoromethyl-pyridin-4-yl)-4H-pyrazolo[1,5-a]quinazolin-5-one]	223 to 226
Cn1c(=O)c2ccc(F)cc2n2nc(-c3ccnc(C4CC4)c3)cc12 [Example 112, 2-(2-Cyclopropyl-pyridin-4-yl)-8-fluoro-4-methyl-4H-pyrazolo[1,5-a]quinazolin-5-one]	230 to 235
